These are literature values, as cited in PMC8398451, “Molecular Engineering of Curcumin, an Active Constituent of Curcuma longa L. (Turmeric) of the Family Zingiberaceae with Improved Antiproliferative Activity” (Plants, 2021).

As a reminder, the GI50 is the concentration at which growth is held to half of that of the control.

Common to all, as to parameters: method as in earlier work
Common to all, as to settings: cited from earlier work; for Mean % GI: 10 µM, retrieved from NCI data-ware

Data set [1] relates to Renal Cancer cell line panel.
The subject of data set [2] is Breast Cancer cell line panel.
The subject of a further data set is Melanoma cell line panel.
Data set [3] deals with Ovarian Cancer cell line panel.
The test system of data set [4] is CNS Cancer cell line panel.
In data set [5] the test system is Non-Small Cell Lung Cancer cell line panel.
Another data set has as its system Leukemia cell line panel.
For data set [6], the system named is Colon Cancer cell line panel.
Data set [7] relates to Prostate Cancer cell line panel.
The mark [8] stands for this setting: five-dose assay, curcumin NCI data.

In the case of `COc1cc(/C=C/C(=O)CC(=O)/C=C/c2ccc(O)c(OC)c2)ccc1O` [Cur, Curcumin], the “Mean % GI” value in [1] is listed as 45.35%; in [2], 56.1%; with Melanoma cell line panel it was 54.63%; in data set [3] it was 44.66%; in [4] it was 60.75%; in data set [5] it was 49.27%. Further, the figures for the “Mean % GI” value (with Leukemia cell line panel; in data set [6]; in data set [7]) were 97.76%, 95.76% and 61.3%, respectively. For the same compound, the GI50 is 8.9 µM in [1] (setting [8]); 8.1 µM in data set [2] (setting [8]); 5.9 µM in the data set on Melanoma cell line panel (setting [8]); 9.1 µM in [3] (setting [8]); 5.8 µM in data set [4] (setting [8]); 9.2 µM in data set [5] (setting [8]). In addition, the GI50 with Leukemia cell line panel (setting [8]) is 3.7 µM; in data set [6] (setting [8]) it was 4.7 µM; in data set [7] (setting [8]), 11.2 µM.
In the case of `COc1cc2ncnc(Nc3ccc(F)c(Cl)c3)c2cc1OCCCN1CCOCC1` [Gefitinib], the “Mean % GI” value in data set [1] is given as 77.89%; in data set [2], 52.88%; in the data set on Melanoma cell line panel it was 44.99%; in data set [3], 60.93%; in [4], 46.13%; in [5], 63.97%. Besides, the entries for the “Mean % GI” value (in the data set on Leukemia cell line panel; in [6]; in [7]) were 79.68%, 52.19% and 59.6%, respectively.
